Results taken from US20220211478A1, “SURGICAL SYSTEM AND METHODS OF USE” (priority 2021, published 2022).

Legend:
myofibroblast formation = details: capsular contracture with breast implants; Ajmal et al. (2003); cited from earlier work
fibrinolysis = assay: prevention / reversal of fibrinolysis; details: relative to doses of the non-GLP acute porcine study
Source text: (§1) However, in some embodiments, however, higher doses of tranexamic acid are used for topical applications to account for tranexamic acid being widely distributed throughout the extracellular and intracellular compartments when given preoperatively.

[1] = in vivo
Source text: as §1

| SMILES | effect on myofibroblast formation (myofibroblast formation) | dose effective in reversing fibrinolysis (fibrinolysis) | time to reach plasma concentrations [1] |
| --- | --- | --- | --- |
| O=S(=O)([O-])CCS.[Na+] [MESNA, sodium 2-mercaptoethane sulfonate] | diminish myofibroblast formation | – | – |
| NC[C@H]1CC[C@H](C(=O)O)CC1 [tranexamic acid, trans-4-(aminomethyl)cyclohexanecarboxylic acid] | – | one tenth of the doses used in the non-GLP acute porcine study | 5 to 15 min |
